According to the NIST ThermoML archive (doi:10.1016/j.jct.2014.09.020):

Test: xn = mol fraction of the nth substance listed
Conditions: Liquid; for speed of sound: Frequency=4 MHz, Single path-length method; for mass density: Vibrating tube method

c1ccc2c(c1)CCCC2 [1,2,3,4-tetrahydronaphthalene] + CCCCCCCCCC
Conditions	mass density, 100 kPa [kg/m3]	speed of sound, 100 kPa [m/s]	speed of sound, 5000 kPa [m/s]	speed of sound, 10000 kPa [m/s]	speed of sound, 15000 kPa [m/s]	speed of sound, 20000 kPa [m/s]	speed of sound, 25000 kPa [m/s]
313.15 K, x2 = 0	952.93	1413	1434	1455	1475	1495	1513
313.15 K, x2 = 0.2501	877.12	1331	1356	1380	1402	1424	1445
313.15 K, x2 = 0.5005	813.93	1265	1293	1319	1346	1370	1394
313.15 K, x2 = 0.7502	760.5	1214	1244	1273	1302	1329	1354
323.15 K, x2 = 0	944.99	1374	1397	1419	1439	1459	1480
323.15 K, x2 = 0.2501	869.27	1291	1317	1342	1365	1389	1411
323.15 K, x2 = 0.5005	806.15	1228	1255	1283	1310	1336	1361
323.15 K, x2 = 0.7502	752.77	1175	1207	1238	1268	1296	1321
333.15 K, x2 = 0	937.04	1335	1359	1383	1402	1425	1445
333.15 K, x2 = 0.2501	861.39	1254	1281	1306	1331	1356	1379
333.15 K, x2 = 0.5005	798.33	1189	1220	1249	1276	1302	1327
333.15 K, x2 = 0.7502	744.98	1137	1174	1204	1234	1263	1292
